Data taken from US6683077B2, “2-Amino-benzoxazinones for the treatment of viral infections” (G.D. Searle & Co., priority 1996, dated 2004).
pEC50: −log10 of the molar value.

How the values were obtained:
[1] = biological target: T1, Human leukocyte elastase (HLE) (Homo sapiens, UniProt P08246); assay: Human leukocyte elastase assay; format: biochemical
T1 construct: gift of R. Senior, Washington University
T1 sequence (P08246 30-267): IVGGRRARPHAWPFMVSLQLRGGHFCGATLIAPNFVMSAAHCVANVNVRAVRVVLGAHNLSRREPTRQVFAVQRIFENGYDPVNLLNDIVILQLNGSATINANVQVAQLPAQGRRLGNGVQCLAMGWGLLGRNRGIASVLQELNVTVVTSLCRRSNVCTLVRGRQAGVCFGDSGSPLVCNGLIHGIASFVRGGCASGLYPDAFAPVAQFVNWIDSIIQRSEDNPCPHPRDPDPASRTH
Procedure: Human leukocyte elastase (HLE) (gift of R. Senior, Washington University) was dissolved in saline at 1 mg/ml and further diluted 1/20 in assay buffer (0.2 M Tris, pH 8.0) before use. 10 μl of test compound in DMSO (or DMSO alone), 100 μl of assay buffer and 50 μl of enzyme were added to 96 well plates, mixed and pre-incubated for 30 minutes at ambient temperature. Reaction was initiated by addition of 40 μl of 2.5 mM methoxysuccinyl-Ala-Ala-Pro-Val-p-nitroanilide (Sigma; 25 mM in DMSO diluted 1/10 in assay buffer before use). The increase in absorbance at 405 nm was monitored for 10 minutes with a Biotek EL340 plate reader.

[2] = test system: HCMV engineered virus RC256; assay: microbe, parasite or virus in culture; format: cell-based, human cytomegalovirus; settings: Human betaherpesvirus 5, Fibroblast, read-out: Antiviral Activity RC256, first value (EC50)
[3] = @ 1 (concentration unit not given)
[4] = @ 10 (concentration unit not given)
[5] = @ 100 (concentration unit not given)

| Compound | pEC50 [2] | HLE, % @ concentration [1, 3] | HLE, % @ concentration [1, 4] | further results |
| --- | --- | --- | --- | --- |
| CCN(Cc1ccccc1)C(=O)[C@H](Cc1ccc(OC)cc1)Nc1nc2ccc(CNC(=O)OC(C)(C)C)c(C)c2c(=O)o1 [Example 7o, 1,1-Dimethylethyl[[2-[[2-[ethyl(phenylmethyl)amino]-1S-[(4-methoxyphenyl)methyl]-2-oxoethyl]amino]-5-methyl-4-oxo-4H-3,1-benzoxazin-6-yl]methyl]carbamate] | 4.62 |  |  | HLE, % @ concentration ([1]; @ 12.5 (concentration unit not given)): 42% @ 12.5 |
| Cc1c(CNC(=O)OC(C)(C)C)ccc2nc(N[C@@H](Cc3ccc(Cl)cc3)C(=O)N(C)Cc3ccccc3)oc(=O)c12 [Example 7p, 1,1-Dimethylethyl[[2-[[1S-[(4-chlorophenyl)methyl]-2-[methyl(phenylmethyl)amino]-2-oxoethyl]amino]-5-methyl-4-oxo-4H-3,1-benzoxazin-6-yl]methyl]carbamate] | 4.70 | 42% @ 1 |  |  |
| COc1ccc(C[C@H](Nc2nc3ccc(CNC(=O)OC(C)(C)C)c(C)c3c(=O)o2)C(=O)N(C)CCc2ccccc2)cc1 [Example 7q, 1,1-Dimethylethyl[[2-[[1S-[(4-methoxyphenyl)methyl]-2-[methyl(2-phenylethyl)amino]-2-oxoethyl]amino]-5-methyl-4-oxo-4H-3,1-benzoxazin-6-yl]methyl]carbamate] | 4.66 | 39% @ 1 |  |  |
| COc1ccc(C[C@H](Nc2nc3ccc(CNC(=O)OC(C)(C)C)c(C)c3c(=O)o2)C(=O)N(C)c2ccccc2)cc1 [Example 7t, 1,1-Dimethylethyl[[2-[[1S-[(4-methoxyphenyl)methyl]-2-(methylphenylamino)-2-oxoethyl]amino]-5-methyl-4-oxo-4H-3,1-benzoxazin-6-yl]methyl]carbamate] | 4.74 |  | 20% @ 10 |  |
| CCN(C(=O)[C@H](Cc1ccc(OC)cc1)Nc1nc2ccc(CNC(=O)OC(C)(C)C)c(C)c2c(=O)o1)c1ccccc1 [Example 7u, 1,1-Dimethylethyl[[2-[[2-(ethylphenylamino)-1S-[(4-methoxyphenyl)methyl]-2-oxoethyl]amino]-5-methyl-4-oxo-4H-3,1-benzoxazin-6-yl]methyl]carbamate] | 4.46 |  | 75% @ 10 |  |
| Cc1c(CNC(=O)OC(C)(C)C)ccc2nc(N[C@@H](Cc3ccccc3)C(=O)N(C)CCc3ccccc3)oc(=O)c12 [Example 7v, 1,1-Dimethylethyl[[5-methyl-2-[[2-[methyl(2-phenylethyl)amino]-2-oxo-1S-(phenylmethyl)ethyl]amino]-4-oxo-4H-3,1-benzoxazin-6-yl]methyl]carbamate] | 4.85 |  | 53% @ 10 |  |
| Cc1c(CNC(=O)OCc2ccccc2)ccc2nc(N[C@@H](Cc3ccccc3)C(=O)N(C)CCc3ccccc3)oc(=O)c12 [Example 9dd, Phenylmethyl[[5-methyl-2-[[2-[methyl(2-phenylethyl)amino]-2-oxo-1S-(phenylmethyl)ethyl]amino]-4-oxo-3,1-benzoxazin-6-yl]methyl]carbamate] | 4.35 |  | 78% @ 10 |  |
| CCOC(=O)NCc1ccc2nc(N[C@@H](Cc3ccc(OC)cc3)C(=O)N(C)Cc3ccccc3)oc(=O)c2c1C [Example 9g, Ethyl[[2-[[1S-[(4-methoxyphenyl)methyl]-2-[methyl(phenylmethyl)amino]-2-oxoethyl]amino]-5-methyl-4-oxo-4H-3,1-benzoxazin-6-yl]methyl]carbamate] | 4.82 |  | 27% @ 10 |  |
| COc1ccc(C[C@H](Nc2nc3ccc(CNC(=O)OCC(C)C)c(C)c3c(=O)o2)C(=O)N(C)Cc2ccccc2)cc1 [Example 9h, 2-Methylpropyl[[2-[[1S-[(4-methoxyphenyl)methyl]-2-[methyl(phenylmethyl)amino]-2-oxoethyl]amino]-5-methyl-4-oxo-4H-3,1-benzoxazin-6-yl]methyl]carbamate] | 4.85 |  | 45% @ 10 |  |
| CCOC(=O)NCc1ccc2nc(N[C@@H](Cc3ccccc3)C(=O)N(C)Cc3ccccc3)oc(=O)c2c1C [Example 9k, Ethyl[[5-methyl-2-[[2-[methyl(phenylmethyl)amino]-2-oxo-1S-(phenylmethyl)ethyl]amino]-4-oxo-4H-3,1-benzoxazin-6-yl]methyl]carbamate] | 4.96 |  | 29% @ 10 |  |
| COc1ccc(C[C@H](Nc2nc3ccc(CNC(=O)CC(C)(C)C)c(C)c3c(=O)o2)C(=O)N(C)Cc2ccccc2)cc1 [Example 9m, αS-[[6-[[(3,3-Dimethyl-1-oxobutyl)amino]methyl]-5-methyl-4-oxo-4H-3,1-benzoxazin-2-yl]amino]-4-methoxy-N-methyl-N-(phenylmethyl)benzenepropanamide] | 4.85 | 73% @ 1 |  |  |
| COc1ccc(C[C@H](Nc2nc3ccc(CNC(=O)Cc4ccc(N(C)C)cc4)c(C)c3c(=O)o2)C(=O)N(C)Cc2ccccc2)cc1 [Example 9o, αS-[[6-[[[[4-(Dimethylamino)phenyl]acetyl]amino]methyl]-5-methyl-4-oxo-4H-3,1-benzoxazin-2-yl]amino]-4-methoxy-N-methyl-N-(phenylmethyl)benzenepropanamide] | 4.85 | 73% @ 1 |  |  |
| CCN(Cc1ccccc1)C(=O)[C@H](Cc1ccc(OC)cc1)Nc1nc2ccc(CNC(=O)OCc3ccccc3)c(C)c2c(=O)o1 [Example 9p, Phenylmethyl[[2-[[2-[ethyl(phenylmethyl)amino]-1S-[(4-methoxyphenyl)methyl]-2-oxoethyl]amino]-5-methyl-4-oxo-3,1-benzoxazin-6-yl]methyl]carbamate] | < 4.00 |  |  | HLE, % @ concentration ([1]; @ 6 (concentration unit not given)): 45% @ 6 |
| Cc1c(CNC(=O)OCc2ccccc2)ccc2nc(N[C@@H](Cc3ccccc3)C(=O)N(C)Cc3ccccc3)oc(=O)c12 [Example 9r, Phenylmethyl[[5-methyl-2-[[2-[methyl(phenylmethyl)amino]-2-oxo-1S-(phenylmethyl)ethyl]amino]-4-oxo-4H-3,1-benzoxazin-6-yl]methyl]carbamate] | 4.85 | 47% @ 1 |  |  |
| Cc1c(CNC(=O)c2ccccn2)ccc2nc(N[C@@H](Cc3ccccc3)C(=O)N(C)Cc3ccccc3)oc(=O)c12 [Example 9s, N-[[5-Methyl-2-[[2-[methyl(phenylmethyl)amino]-2-oxo-1S-(phenylmethyl)ethyl]amino]-4-oxo-4H-3,1-benzoxazin-6-yl]methyl]pyridine-2-carboxamide] | 5.12 |  | 55% @ 10 |  |
| COC(=O)[C@H](Cc1ccccc1)Nc1nc2ccc(NC(=O)CCC(=O)O)c(C)c2c(=O)o1 [Example 11d, N-[6-[[(2-Carboxyethyl)carbonyl]amino]-5-methyl-4-oxo-4H-3,1-benzoxazin-2-yl]-L-phenylalanine, methyl ester] | < 4.00 |  |  | HLE, % @ concentration [1, 5]: 76% @ 100 |
| Cc1c(NC(=O)c2ccco2)ccc2nc(N[C@@H](C)c3ccccc3)oc(=O)c12 [Example 11k, 6-[[(2-Furanyl)carbonyl]amino]-5-methyl-2-[[(1S)-phenylethyl]amino]-4H-3,1-benzoxazin-4-one] | 4.19 |  |  | HLE, % @ concentration [1, 5]: 63% @ 100 |
| COc1ccc(C[C@H](Nc2nc3ccc(NC(=O)c4ccccn4)c(C)c3c(=O)o2)C(=O)N(C)Cc2ccccc2)cc1 [Example 11p, N-[2-[[1S-[(4-Methoxyphenyl)methyl]-2-[-methyl(phenylmethyl)amino]-2-oxoethyl]amino]-5-methyl-4-oxo-4H-3,1-benzoxazin-6-yl]pyridine-2-carboxamide] | 5.07 |  | 40% @ 10 |  |
| COc1ccc(C[C@H](Nc2nc3ccc(NC(=O)c4ccco4)c(C)c3c(=O)o2)C(=O)N(C)Cc2ccccc2)cc1 [Example 11u, N-[2-[[1S-[(4-Methoxyphenyl)methyl]-2-[methyl(phenylmethyl)amino]-2-oxoethyl]amino]-5-methyl-4-oxo-4H-3,1-benzoxazin-6-yl]furan-2-carboxamide] | 4.74 |  | 19% @ 10 |  |
| Cc1c(CNC(=O)Nc2ccccc2)ccc2nc(N[C@@H](Cc3ccccc3)C(=O)N(C)Cc3ccccc3)oc(=O)c12 [Example 12f, N-Methyl-αS-[[5-methyl-4-oxo-6-[[[(phenylamino)carbonyl]amino]methyl]-4H-3,1-benzoxazin-2-yl]amino]-N-(phenylmethyl)benzenepropanamide] | 4.85 | 55% @ 1 |  |  |
| Cc1c(CNC(=O)N[C@H](C)c2ccccc2)ccc2nc(N[C@@H](Cc3ccccc3)C(=O)N(C)Cc3ccccc3)oc(=O)c12 [Example 12g] | 4.52 | 45% @ 1 |  |  |
| Cc1c(CNC(=O)NCc2ccccc2)ccc2nc(N[C@@H](Cc3ccccc3)C(=O)N(C)Cc3ccccc3)oc(=O)c12 [Example 12h, N-Methyl-αS-[[5-methyl-4-oxo-6-[[[[(phenylmethyl)amino]carbonyl]amino]methyl]-4H-3,1-benzoxazin-2-yl]amino]-N-(phenylmethyl)benzenepropanamide] | 4.74 | 58% @ 1 |  |  |
